Measurements taken from ChEMBL document CHEMBL1201862, “PubChem BioAssay data set” (2004).
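Values below derive from 48-hour exposures of cells grown in 96-well plates, with endpoints linearly interpolated between the two concentrations bracketing the appropriate inhibition level. At the GI50, growth is halved.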 Active and inactive are the calls of the source. No stated cut-off is given here; in the data, active = GI50 up to about 1.1 µM and inactive = higher.

How the values were obtained:
Experiment in all cases: DTP human tumour cell line panel, 48 h
NCI-H522 = test system: NCI-H522
EKVX = test system: EKVX
HOP-62 = test system: HOP-62
IGROV-1 = test system: IGROV-1
SNB-19 = test system: SNB-19
HCC 2998 = test system: HCC 2998
HCT-116 = test system: HCT-116
NCI-H23 = test system: NCI-H23
T47D = test system: T47D
SW-620 = test system: SW-620
LOX IMVI = test system: LOX IMVI
UACC-257 = test system: UACC-257
HL-60 = test system: HL-60
NCI-H226 = test system: NCI-H226
SF-295 = test system: SF-295
TK-10 = test system: TK-10
OVCAR-5 = test system: OVCAR-5
RPMI-8226 = test system: RPMI-8226
NCI-H460 = test system: NCI-H460
786-0 = test system: 786-0
DU-145 = test system: DU-145
KM12 = test system: KM12
PC-3 = test system: PC-3
SN12C = test system: SN12C
OVCAR-4 = test system: OVCAR-4
SF-268 = test system: SF-268
UO-31 = test system: UO-31
SK-OV-3 = test system: SK-OV-3
SR = test system: SR
HCT-15 = test system: HCT-15
SNB-75 = test system: SNB-75
U-251 = test system: U-251
A498 = test system: A498
Hs-578T = test system: Hs-578T
M14 = test system: M14
A549 = test system: A549
K562 = test system: K562
SK-MEL-5 = test system: SK-MEL-5
MDA-MB-231 = test system: MDA-MB-231
CAKI-1 = test system: CAKI-1
MDA-N = test system: MDA-N
MOLT-4 = test system: MOLT-4
HOP-92 = test system: HOP-92
MCF7 = test system: MCF7
OVCAR-8 = test system: OVCAR-8
SK-MEL-2 = test system: SK-MEL-2
CCRF-CEM = test system: CCRF-CEM
RXF 393 = test system: RXF 393
SF-539 = test system: SF-539
Malme-3M = test system: Malme-3M
HT-29 = test system: HT-29
COLO 205 = test system: COLO 205
SK-MEL-28 = test system: SK-MEL-28
ACHN = test system: ACHN
NCI/ADR-RES = test system: NCI/ADR-RES
MDA-MB-435 = test system: MDA-MB-435
OVCAR-3 = test system: OVCAR-3
UACC-62 = test system: UACC-62
BT-549 = test system: BT-549

With COc1c(C)c2nc3ccccc3nc2c2c(O)ccnc12 the GI50 (NCI-H522) was 71.3 µM (inactive), the GI50 (EKVX) was > 100 µM (inactive) and the GI50 (HOP-62) was 23.5 µM (inactive). The GI50 (IGROV-1) was 43.3 µM (inactive), the GI50 (SNB-19) was 36.6 µM (inactive) and the GI50 (HCC 2998) was > 100 µM (inactive). For the same compound, the GI50 (HCT-116) was > 100 µM (inactive), the GI50 (NCI-H23) was 55.6 µM (inactive) and the GI50 (T47D) was 6.64 µM (inactive). For the same compound, the GI50 (SW-620) was > 100 µM (inactive), the GI50 (LOX IMVI) was > 100 µM (inactive) and the GI50 (UACC-257) was > 100 µM (inactive). For the same compound, the GI50 (HL-60) was > 100 µM (inactive), the GI50 (NCI-H226) was > 100 µM (inactive) and the GI50 (SF-295) was 43.2 µM (inactive). For the same compound, the GI50 (TK-10) was 64.4 µM (inactive), the GI50 (OVCAR-5) was > 100 µM (inactive) and the GI50 (RPMI-8226) was > 100 µM (inactive). For the same compound, the GI50 (NCI-H460) was 53.5 µM (inactive), the GI50 (786-0) was 16.9 µM (inactive) and the GI50 (DU-145) was 34 µM (inactive). The GI50 (KM12) was > 100 µM (inactive), the GI50 (PC-3) was > 100 µM (inactive) and the GI50 (SN12C) was > 100 µM (inactive). For the same compound, the GI50 (OVCAR-4) was > 100 µM (inactive), the GI50 (SF-268) was 68.7 µM (inactive) and the GI50 (UO-31) was > 100 µM (inactive). The GI50 (SK-OV-3) was 75.7 µM (inactive), the GI50 (SR) was > 100 µM (inactive) and the GI50 (HCT-15) was greater than 100 µM. The GI50 (SNB-75) was 7.13 µM (inactive), the GI50 (U-251) was 54.5 µM (inactive) and the GI50 (A498) was 43.3 µM (inactive). For the same compound, the GI50 (Hs-578T) was 16 µM (inactive), the GI50 (M14) was > 100 µM (inactive) and the GI50 (A549) was 37.1 µM (inactive). For the same compound, the GI50 (K562) was > 100 µM (inactive), the GI50 (SK-MEL-5) was 35.6 µM (inactive) and the GI50 (MDA-MB-231) was > 100 µM (inactive). The GI50 (CAKI-1) was > 100 µM (inactive), the GI50 (MDA-N) was > 100 µM (inactive) and the GI50 (MOLT-4) was > 100 µM (inactive). For the same compound, the GI50 (HOP-92) was 36.4 µM (inactive), the GI50 (MCF7) was > 100 µM (inactive) and the GI50 (OVCAR-8) was 50.5 µM (inactive). For the same compound, the GI50 (SK-MEL-2) was > 100 µM (inactive), the GI50 (CCRF-CEM) was > 100 µM (inactive) and the GI50 (RXF 393) was 19.3 µM (inactive). The GI50 (SF-539) was 54.2 µM (inactive), the GI50 (Malme-3M) was > 100 µM (inactive) and the GI50 (HT-29) was 69.7 µM (inactive). The GI50 (COLO 205) was 46.1 µM (inactive), the GI50 (SK-MEL-28) was > 100 µM (inactive) and the GI50 (ACHN) was 30.1 µM (inactive). The GI50 (NCI/ADR-RES) was > 100 µM (inactive), the GI50 (MDA-MB-435) was > 100 µM (inactive) and the GI50 (OVCAR-3) was > 100 µM (inactive).
CCOC(=O)c1c(C)n(Cc2ccc(Cl)cc2Cl)c2c1cc(O)c1[nH]c3c(c12)CCCC3 was tested, and the GI50 (NCI-H522) was 16.1 µM (inactive), the GI50 (EKVX) was 34.6 µM (inactive) and the GI50 (HOP-62) was 27.5 µM (inactive). For the same compound, the GI50 (IGROV-1) was 24.9 µM (inactive), the GI50 (SNB-19) was 23.6 µM (inactive) and the GI50 (HCC 2998) was 27.3 µM (inactive). For the same compound, the GI50 (HCT-116) was 40.7 µM (inactive), the GI50 (NCI-H23) was 27.5 µM (inactive) and the GI50 (T47D) was 14.7 µM (inactive). The GI50 (SW-620) was 30.7 µM (inactive), the GI50 (LOX IMVI) was 33.5 µM (inactive) and the GI50 (UACC-257) was 19.3 µM (inactive). For the same compound, the GI50 (HL-60) was < 0.01 µM (active), the GI50 (NCI-H226) was 23.6 µM (inactive) and the GI50 (SF-295) was 29.3 µM (inactive). The GI50 (TK-10) was 24.5 µM (inactive), the GI50 (OVCAR-5) was 36.2 µM (inactive) and the GI50 (RPMI-8226) was 16.6 µM (inactive). The GI50 (NCI-H460) was 28.3 µM (inactive), the GI50 (786-0) was 30.1 µM (inactive) and the GI50 (DU-145) was 36.4 µM (inactive). The GI50 (KM12) was 22.6 µM (inactive), the GI50 (PC-3) was 19.9 µM (inactive) and the GI50 (SN12C) was 22.9 µM (inactive). The GI50 (OVCAR-4) was 17.1 µM (inactive), the GI50 (SF-268) was 20.8 µM (inactive) and the GI50 (UO-31) was 20.7 µM (inactive). For the same compound, the GI50 (SK-OV-3) was 41.2 µM (inactive), the GI50 (SR) was 0.136 µM (active) and the GI50 (HCT-15) was 41.7 µM. The GI50 (SNB-75) was 23.3 µM (inactive), the GI50 (U-251) was 37.8 µM (inactive) and the GI50 (A498) was 19.5 µM (inactive). For the same compound, the GI50 (M14) was 26.7 µM (inactive), the GI50 (A549) was 52 µM (inactive) and the GI50 (SK-MEL-5) was 20.5 µM (inactive). For the same compound, the GI50 (MDA-MB-231) was 34.2 µM (inactive), the GI50 (CAKI-1) was 22.8 µM (inactive) and the GI50 (MDA-N) was 21.2 µM (inactive). The GI50 (MOLT-4) was < 0.01 µM (active), the GI50 (HOP-92) was 20.2 µM (inactive) and the GI50 (MCF7) was 14.6 µM (inactive). For the same compound, the GI50 (OVCAR-8) was 11.4 µM (inactive), the GI50 (SK-MEL-2) was 24 µM (inactive) and the GI50 (CCRF-CEM) was 16.8 µM (inactive). For the same compound, the GI50 (RXF 393) was 18.5 µM (inactive), the GI50 (UACC-62) was 22.5 µM (inactive) and the GI50 (SF-539) was 24.1 µM (inactive). For the same compound, the GI50 (Malme-3M) was 20.6 µM (inactive), the GI50 (HT-29) was 24 µM (inactive) and the GI50 (COLO 205) was 37.1 µM (inactive). For the same compound, the GI50 (SK-MEL-28) was 22.1 µM (inactive), the GI50 (BT-549) was 18.9 µM (inactive) and the GI50 (ACHN) was 25.6 µM (inactive). The GI50 (NCI/ADR-RES) was 18.8 µM (inactive), the GI50 (MDA-MB-435) was 20.3 µM (inactive) and the GI50 (OVCAR-3) was 38 µM (inactive).
